From patent publication US20230113037A1 (Bayer Aktiengesellschaft, priority 2019, published 2023) come the findings set out here.

SMILES strings stand for the structures. Where “and” joins values, the source holds several entries; their conditions need not be identical. Identical values can stand only once. Like-named read-outs stand apart in the source and are kept apart here.

Assay [1] has as its target T1, AHR (Homo sapiens, UniProt P35869).
T1 construct: U87 MG glioblastoma cells (ATCC #HTB-14) endogenously expressing AHR; endogenous in cells; host or cells: U87 MG glioblastoma cells (ATCC #HTB-14)
T1 sequence (P35869 11-848): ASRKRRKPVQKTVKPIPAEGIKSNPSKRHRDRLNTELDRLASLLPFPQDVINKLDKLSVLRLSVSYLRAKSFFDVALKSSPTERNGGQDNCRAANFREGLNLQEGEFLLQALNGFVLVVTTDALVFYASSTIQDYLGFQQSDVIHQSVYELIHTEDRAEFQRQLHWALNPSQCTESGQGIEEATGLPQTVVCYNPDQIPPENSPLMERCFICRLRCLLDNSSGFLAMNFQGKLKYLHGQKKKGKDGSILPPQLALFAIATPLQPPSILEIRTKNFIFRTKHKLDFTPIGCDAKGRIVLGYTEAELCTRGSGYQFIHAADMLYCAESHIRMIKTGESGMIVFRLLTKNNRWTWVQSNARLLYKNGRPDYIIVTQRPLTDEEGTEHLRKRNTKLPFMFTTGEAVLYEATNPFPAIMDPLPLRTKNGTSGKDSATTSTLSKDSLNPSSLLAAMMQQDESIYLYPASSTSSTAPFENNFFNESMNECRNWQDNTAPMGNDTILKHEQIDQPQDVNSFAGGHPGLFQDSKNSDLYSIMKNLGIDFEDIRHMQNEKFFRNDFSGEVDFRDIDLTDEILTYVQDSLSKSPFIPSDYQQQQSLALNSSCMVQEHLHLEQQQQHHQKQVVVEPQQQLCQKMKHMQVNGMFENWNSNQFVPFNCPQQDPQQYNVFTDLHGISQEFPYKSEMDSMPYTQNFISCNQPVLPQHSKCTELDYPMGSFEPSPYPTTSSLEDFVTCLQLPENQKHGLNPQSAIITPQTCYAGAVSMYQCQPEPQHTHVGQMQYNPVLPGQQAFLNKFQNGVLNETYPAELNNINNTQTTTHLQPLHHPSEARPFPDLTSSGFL
Put plainly: In vitro assay 1: antagonism in human cell line (AHR transactivation, firefly luciferase reporter, kynurenic acid prestimulated). It is filed as cell-based. The following applies: AHR Antagonism Human IC50 [M]. The procedure:
Examples were tested in selected biological assays one or more times. When tested more than once, data are reported as either average values or as median values, wherein • the average value, also referred to as the arithmetic mean value, represents the sum of the values obtained divided by the number of times tested, and • the median value represents the middle number of the group of values when ranked in ascending or descending order. If the number of values in the data set is odd, the median is the middle value. If the number of values in the data set is even, the median is the arithmetic mean of the two middle values.
Transactivation assays were carried out in U87 MG glioblastoma cells (ATCC #HTB-14) endogenously expressing AHR. In addition the cells were stably transfected with an AHR inducible firefly luciferase reporter gene construct that carried AHR-binding sites (DRE) in its promoter and a renilla reporter gene construct with constitutively active promoter. Kynurenic acid is an endogenous AHR activating ligand and was used to prestimulate test cells prior to testing the antagonistic properties of compounds.
As positive inhibition control cells supplemented with 150 μM kynurenic acid were incubated in presence of 5 μM Staurosporin. Normalization was done by positive and negative controls.
Firefly luciferase and Renilla activity was determined by the DualGlo Luciferase Assay System (Promega, #2920). Renilla activity was used to assess toxic effects of compounds.
In general terms: In a reporter assay the amount or activity of a reporter protein is the signal.

Assay [2] concerns the target T2, AHR (Mus musculus, UniProt P30561).
T2 sequence (P30561 1-848 P471L/N533S/M589L): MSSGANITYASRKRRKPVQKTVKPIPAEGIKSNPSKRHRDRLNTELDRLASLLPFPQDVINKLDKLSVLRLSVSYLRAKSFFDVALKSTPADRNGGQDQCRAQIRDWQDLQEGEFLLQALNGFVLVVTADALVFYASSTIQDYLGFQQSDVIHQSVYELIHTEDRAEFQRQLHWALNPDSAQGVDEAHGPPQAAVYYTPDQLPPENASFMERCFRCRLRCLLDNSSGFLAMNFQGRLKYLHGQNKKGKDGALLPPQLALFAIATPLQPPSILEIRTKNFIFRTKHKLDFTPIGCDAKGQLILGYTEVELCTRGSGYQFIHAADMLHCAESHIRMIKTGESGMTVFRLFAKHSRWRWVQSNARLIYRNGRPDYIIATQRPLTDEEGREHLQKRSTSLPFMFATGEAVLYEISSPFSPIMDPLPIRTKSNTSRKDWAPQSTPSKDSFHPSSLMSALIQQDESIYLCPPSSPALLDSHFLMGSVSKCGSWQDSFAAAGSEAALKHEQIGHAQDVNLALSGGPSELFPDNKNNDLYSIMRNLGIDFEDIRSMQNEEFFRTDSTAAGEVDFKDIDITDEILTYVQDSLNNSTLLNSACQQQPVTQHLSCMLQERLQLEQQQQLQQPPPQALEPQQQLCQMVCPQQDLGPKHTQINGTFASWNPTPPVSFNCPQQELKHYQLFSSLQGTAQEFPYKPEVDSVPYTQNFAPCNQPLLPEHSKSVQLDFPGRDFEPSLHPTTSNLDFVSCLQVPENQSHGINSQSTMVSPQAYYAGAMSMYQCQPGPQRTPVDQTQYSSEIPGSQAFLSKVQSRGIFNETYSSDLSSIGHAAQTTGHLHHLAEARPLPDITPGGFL
Put plainly: In vitro assay 3: antagonism in mouse cell line (AHR transactivation, firefly luciferase reporter, kynurenic acid prestimulated). It is filed as cell-based. In a few lines: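 Antagonism read as reduced firefly luciferase signal (SteadyGlo) from a stably transfected AHR/DRE reporter in a mouse line prestimulated with kynurenic acid. Data normalized to controls, the full-inhibition control being cells without kynurenic acid; multiple determinations given as average or median values.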

Where [3] appears, read: mouse Hepa 1c1c7 cells, 200 μM kynurenic acid, 20 hours, read-out: AHR Antagonism Mouse IC50.
Setting [4] is: Hepa 1c1c7 cells, 200 μM kynurenic acid, 20 hours, firefly luciferase reporter, read-out: AHR Antagonism Mouse IC50.

By IC50 is commonly meant the concentration at which inhibition is half-maximal. Consider `C[S+]([O-])c1ccccc1-c1nc2c3ccccc3nc(N[C@@H]3CCCCNC3=O)n2n1` (mixture of isomers) [Example 648, (3R)-3-[(2-{2-[methanesulfinyl]phenyl}[1,2,4]triazolo[1,5-c]quinazolin-5-yl)amino]azepan-2-one], for which the 50% inhibitory concentration (IC50) at AHR [1] is 6.89e-09 M; on AHR [2] (setting [3]), 0.00363 µM.

`COc1ccc(-c2nc3c4cccc(S(C)(=N)=O)c4nc(N[C@@H]4CCCCNC4=O)n3n2)cc1` (mixture of isomers) [Example 853, (3R)-3-{[7-(S-methanesulfonimidoyl)-2-(4-methoxyphenyl)[1,2,4]triazolo[1,5-c]quinazolin-5-yl]amino}azepan-2-one]: the figures for the IC50 against AHR [1] (firefly luciferase reporter) and on AHR [2] (setting [4]) were 2.04e-09 M and 0.0686 µM, respectively.

`C[C@@H](Nc1nc2c(C(F)(F)F)cccc2c2nc(-c3cnn(C)c3)nn12)C(=O)N1CCC(N(C)C)C1` (mixture of isomers) [Example 876, (2R)-1-[(3R/S)-3-(dimethylamino)pyrrolidin-1-yl]-2-{[2-(1-methyl-1H-pyrazol-4-yl)-7-(trifluoromethyl)[1,2,4]triazolo[1,5-c]quinazolin-5-yl]amino}propan-1-one]: the IC50 was found to be 5.39e-08 M against AHR [1] (firefly luciferase reporter) and 0.11 µM at AHR [2] (setting [4]).

For `Cn1cc(-c2nc3c4ccccc4nc(NC4CNCCNC4=O)n3n2)cn1` (racemic) [Example 22, 6-{[2-(1-methyl-1H-pyrazol-4-yl)[1,2,4]triazolo[1,5-c]quinazolin-5-yl]amino}-1,4-diazepan-5-one], the concentration for half-maximal inhibition (IC50) worked out at 5.33e-06 M against AHR [1] and 2.03 µM at AHR [2] (setting [3]).

With `CCCC[C@H](Nc1nc2ccccc2c2nc(-c3cccc(OC(F)(F)F)c3)nn12)C(N)=O` (racemic) [Example 322, N^2-{2-[3-(trifluoromethoxy)phenyl][1,2,4]triazolo[1,5-c]quinazolin-5-yl}-norleucinamide], the IC50 at AHR [1] amounted to 6.42e-08 M; at AHR [2] (read-out: AHR Antagonism Mouse IC50, mouse Hepa 1c1c7 cells, 200 μM kynurenic acid, 20 hours), 0.0357 µM.

On to `Cn1cc(-c2nc3c4cccc(C(F)(F)F)c4nc(NC4C(=O)NCC4(C)C)n3n2)cn1` (racemic) [Example 728, (+/−)-4,4-dimethyl-3-{[2-(1-methyl-1H-pyrazol-4-yl)-7-(trifluoromethyl)[1,2,4]triazolo[1,5-c]quinazolin-5-yl]amino}pyrrolidin-2-one], for which the IC50 at AHR [1] is over 2e-05 M; at AHR [2] (setting [3]), 0.446 µM.

For `Cn1cc(-c2nc3c4ccccc4nc(NC4CCNC4=O)n3n2)cn1` (single isomer, unassigned) [Example 18, 3-{[2-(1-methyl-1H-pyrazol-4-yl)[1,2,4]triazolo[1,5-c]quinazolin-5-yl]amino}pyrrolidin-2-one], the figures for the IC50 against AHR [1] and at AHR [2] (setting [3]) were 1.11e-06 M and 2.22 µM, respectively.

On to `Cn1cc(-c2nc3c4ccccc4nc(NC4CCCNC4=O)n3n2)cn1` (single isomer, unassigned) [Example 20, 3-{[2-(1-methyl-1H-pyrazol-4-yl)[1,2,4]triazolo[1,5-c]quinazolin-5-yl]amino}piperidin-2-one], for which the IC50 was 1.24e-06 M at AHR [1] and 2.21 µM on AHR [2] (setting [3]).

Take `Cn1cc(-c2nc3c4ccccc4nc(NC4CCCNC4=O)n3n2)cn1` (single isomer, unassigned) [Example 21, 3-{[2-(1-methyl-1H-pyrazol-4-yl)[1,2,4]triazolo[1,5-c]quinazolin-5-yl]amino}piperidin-2-one]: the IC50 on AHR [1] was 1.29e-05 M; at AHR [2] (setting [3]), > 20 µM and 19.7 µM.

`Cn1cc(-c2nc3c4ccccc4nc(NC4CNCCNC4=O)n3n2)cn1` (single isomer, unassigned) [Example 23, 6-{[2-(1-methyl-1H-pyrazol-4-yl)[1,2,4]triazolo[1,5-c]quinazolin-5-yl]amino}-1,4-diazepan-5-one]: the IC50 against AHR [1] is > 2e-05 M and 1.65e-05 M; at AHR [2] (setting [3]), 3.38 µM.

Turning to `COc1ccc(-c2nc3c4ccccc4nc(NC4CNCCNC4=O)n3n2)cc1` (single isomer, unassigned) [Example 35, 6-{[2-(4-methoxyphenyl)[1,2,4]triazolo[1,5-c]quinazolin-5-yl]amino}-1,4-diazepan-5-one], the IC50 against AHR [1] turned out to be 1.55e-06 M; on AHR [2] (setting [3]), 0.0604 µM.

For `COc1ccc(-c2nc3c4ccccc4nc(NC4CNCCNC4=O)n3n2)cc1` (single isomer, unassigned) [Example 36, 6-{[2-(4-methoxyphenyl)[1,2,4]triazolo[1,5-c]quinazolin-5-yl]amino}-1,4-diazepan-5-one], the figures for the IC50 on AHR [1] and on AHR [2] (setting [3]) were 8.01e-09 M and 0.0294 µM, respectively.

For the compound `COc1ccc(-c2nc3c4ccccc4nc(NC4CCCNC4=O)n3n2)cc1` (single isomer, unassigned) [Example 38, 3-{[2-(4-methoxyphenyl)[1,2,4]triazolo[1,5-c]quinazolin-5-yl]amino}piperidin-2-one], the IC50 against AHR [1] is 1.94e-08 M; on AHR [2] (setting [3]), 0.0698 µM.

Turning to `Cc1ccccc1-c1nc2c3ccccc3nc(NC3CNCCNC3=O)n2n1` (single isomer, unassigned) [Example 46, 6-{[2-(2-methylphenyl)[1,2,4]triazolo[1,5-c]quinazolin-5-yl]amino}-1,4-diazepan-5-one], the values for the IC50 at AHR [1] and at AHR [2] (setting [3]) were 2.93e-08 M and 0.00525 µM, respectively.

In the case of `Cc1ccccc1-c1nc2c3ccccc3nc(NC3CNCCNC3=O)n2n1` (single isomer, unassigned) [Example 47, 6-{[2-(2-methylphenyl)[1,2,4]triazolo[1,5-c]quinazolin-5-yl]amino}-1,4-diazepan-5-one], the IC50 was 1.86e-08 M at AHR [1] and 0.0279 µM at AHR [2] (setting [3]).

Regarding `Cc1ccccc1-c1nc2c3ccccc3nc(NC3CCCNC3=O)n2n1` (single isomer, unassigned) [Example 48, 3-{[2-(2-methylphenyl)[1,2,4]triazolo[1,5-c]quinazolin-5-yl]amino}piperidin-2-one], the results for the IC50 against AHR [1] and on AHR [2] (setting [3]) were 3.2e-08 M and 0.062 µM, respectively.

In the case of `Cc1ccccc1-c1nc2c3ccccc3nc(NC3CCCNC3=O)n2n1` (single isomer, unassigned) [Example 49, 3-{[2-(2-methylphenyl)[1,2,4]triazolo[1,5-c]quinazolin-5-yl]amino}piperidin-2-one], the values for the half-maximal inhibitory concentration (IC50) on AHR [1] and at AHR [2] (setting [3]) were 8.5e-08 M and 0.0261 µM, respectively.
